According to paper PMC7884679 (British Journal of Cancer, 2020):
“Also recorded” adds a separate entry of the source.

Legend:
DNA-PK = conditions: preclinical ref 6–8; cited from earlier work
phosphorylation of AKT = tested on: phosphorylation of AKT; design: method as in PMID 32220971; conditions: preclinical experiments ref 8; cited from earlier work
[1] = tested on: repair of radiation- or chemotherapy-induced DNA DSBs; conditions: preclinical studies ref 6–10; cited from earlier work
clinical = conditions: human, in vivo; for AUC(0-t): AUC0–12; for AUC(0-inf): AUC0–∞; for Vd/F: Vz/f
Protocol: (§1) Safety was assessed through the recording, reporting and analysis of baseline medical conditions, AEs, physical examination findings (including vital signs and monitoring for bleeding), laboratory tests, ECOG PS and 12-lead electrocardiograms. […] PK was assessed using blood samples collected pre-treatment and on-treatment. […] Tumour response was evaluated according to RECIST (v1.1). Target and non-target lesions were measured by computed tomography or magnetic resonance imaging every 6 weeks.
The cut-off for the final analysis was when the last patient completed the dose-escalation phase (29 June 2017). The All Patients Analysis Set comprised all patients who provided informed consent (screening failures plus enrolled patients) and was used to describe patient disposition and deaths. […] The Efficacy Analysis Set, including patients who received at least one treatment dose, was used for all efficacy summaries. […] The Biomarker/Pharmacogenomics Analysis Set included patients who received at least the first dose of study drug and provided at least one pre-dose sample and one post-dose sample.

PI3K lipid kinases = tested on: PI3K lipid kinases; design: method as in PMID 32220971; conditions: cited from earlier work
platelet aggregation = conditions: preclinical data; cited from earlier work
[2] = tested on: patients with advanced solid tumours; test: Dose escalation 3 + 3: DLT, MTD, RP2D; type: in vivo
Excerpt: Dose escalation was by use of a standard ‘3 + 3’ design, based on the presence/absence of dose-limiting toxicities (DLTs). […] The starting dose was considered to have acceptable safety and to be in the range of the biologically active dose based on in vivo pharmacology data.[7]
The MTD was defined as the dose level below the dose at which two out of six patients experienced a DLT. Once the MTD was established, the RP2D was to be defined by the Safety Monitoring Committee (SMC), either at the MTD level or below, depending on the available safety, efficacy, PK and PD data.
(§2) In addition, a DLT could be identified by the SMC as any TEAE that impaired daily function or abnormality occurring in patients treated with peposertib at any time during the dose escalation part of the study.

human cyclooxygenase 1 = molecular target: T1, human cyclooxygenase 1 (Homo sapiens, UniProt P23219); test: Platelet aggregation in aspirin-naïve patients at the RP2D; type: in vivo; conditions: aspirin-naïve cohort, 400 mg BID
T1 construct: endogenous in cells; host or cells: platelets of aspirin-naïve patients treated at the RP2D

advanced solid tumours = test: Tumour response by RECIST v1.1; type: in vivo, human
Protocol: as §1
(§3) TEAEs were summarised according to Medical Dictionary for Regulatory Activities (v20.0) preferred term and system organ class. All statistical analyses (except for PK) were performed using SAS 9.1.3 or higher. Tumour assessments, based on investigator evaluations of target, non-target and new lesions according to RECIST (v1.1), were used to derive the best overall response. Trial data were summarised by dose level.

[3] = tested on: patients with advanced solid tumours; test: Safety and tolerability: treatment-emergent adverse events (CTCAE v4.03); type: in vivo
Protocol: as §2, §1, §3

T1 sequence (P23219 24-599): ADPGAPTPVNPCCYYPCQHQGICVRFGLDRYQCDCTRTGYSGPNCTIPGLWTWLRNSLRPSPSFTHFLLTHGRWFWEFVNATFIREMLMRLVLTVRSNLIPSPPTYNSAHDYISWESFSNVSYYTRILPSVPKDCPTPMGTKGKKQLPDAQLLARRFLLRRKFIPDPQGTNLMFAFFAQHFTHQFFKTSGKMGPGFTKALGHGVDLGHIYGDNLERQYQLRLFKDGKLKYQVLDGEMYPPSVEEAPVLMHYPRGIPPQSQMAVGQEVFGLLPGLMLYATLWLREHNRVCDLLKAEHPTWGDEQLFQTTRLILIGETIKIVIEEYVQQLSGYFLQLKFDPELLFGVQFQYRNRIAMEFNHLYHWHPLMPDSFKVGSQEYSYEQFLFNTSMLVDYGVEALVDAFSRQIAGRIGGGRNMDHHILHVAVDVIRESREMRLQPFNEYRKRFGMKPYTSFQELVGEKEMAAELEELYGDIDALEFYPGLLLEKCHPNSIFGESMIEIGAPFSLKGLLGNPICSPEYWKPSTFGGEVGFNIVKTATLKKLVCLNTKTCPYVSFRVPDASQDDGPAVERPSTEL

Structure (SMILES): COc1ccc([C@@H](O)c2cc(-c3ncnc4cc(N5CCOCC5)ccc34)c(F)cc2Cl)nn1 [Peposertib, peposertib]
- concentrations blocking DNA-PK kinase activity (DNA-PK): sub-nanomolar
- inhibition of the phosphorylation of AKT (phosphorylation of AKT): only moderate inhibition
- synergy with radiotherapy and DSB-inducing chemotherapies (e.g. etoposide, doxorubicin) [1]: demonstrated synergy
- Tmax (clinical): 1.5 h
- geometric mean percent coefficient of variation (%CV) for Cmax (clinical): 15.5–117%
- AUC(0-t) (clinical; 100 mg): 2290 ng·h/mL
- AUC(0-inf) (clinical; 100 mg): 2920 ng·h/mL
- Cmax (clinical; 100 mg): 440 ng/mL
- Vd/F (clinical; 100 mg): 276 L
- half-life (clinical; 100 mg, t1/2): 5.5 h
- Tmax (clinical; 100 mg, tmax): 1.8 h
- AUC(0-t) (clinical; 150 mg): 3040 ng·h/mL
- AUC(0-inf) (clinical; 150 mg): 3770 ng·h/mL
- Cmax (clinical; 150 mg): 695 ng/mL
- Vd/F (clinical; 150 mg): 304 L
- half-life (clinical; 150 mg, t1/2): 5.1 h
- Tmax (clinical; 200 mg, tmax): 1.4 h
- Vd/F (clinical; 300 mg): 662 L
- half-life (clinical; 300 mg, t1/2): 4.7 h
- Tmax (clinical; 300 mg, tmax): 1.9 h
- AUC(0-inf) (clinical; 400 mg): 4140 ng·h/mL
- Tmax (clinical; 400 mg, tmax): 2.4 h
- half-life (clinical; mean elimination half-life): ~5.5 h
- Tmax (clinical; po, median tmax): 1.1 to 2.5 h
- potency on PI3K lipid kinases (PI3K lipid kinases; compared with DNA-PK, preclinical studies ref 8): significantly lower potency
- potency against DNA-PK versus other PI3K and PI3K-related family members (PI3K lipid kinases; preclinical ref 8): substantially greater
- inhibition of platelet aggregation (platelet aggregation): reversible inhibition of platelet aggregation at micromolar concentrations
- maximum-tolerated dose (MTD) ([2]; dose escalation up to 400 mg BID): not reached
- recommended phase 2 dose (RP2D) ([2]; human, in vivo, 21 days): 400 mg BID
- effect on platelet aggregation (human cyclooxygenase 1): very weak effect; also recorded: only a weak effect
- patients with stable disease for ≥12 weeks (advanced solid tumours; RECIST v1.1): seven
- objective tumour responses (complete or partial) (advanced solid tumours; RECIST v1.1, all doses): No objective tumour responses
- duration of stable disease (advanced solid tumours; one patient, metastatic hepatocellular carcinoma, prior progression on sorafenib, at data cut-off): 69 weeks
- patients not evaluable (advanced solid tumours; tumour assessment at screening only): 16%
- time remained on treatment (advanced solid tumours; two patients (metastatic renal cell carcinoma; tonsillar squamous cell carcinoma), 400 mg BID): 36 weeks
- Number of patients with: Any TEAE leading to death ([3]; 100/QD n = 3): 0 (0) n (%)
- Number of patients with: Any peposertib related TEAE leading to death ([3]; 100/QD n = 3): 0 (0) n (%)
- Number of patients with: Any TEAE leading to death ([3]; 150/BID n = 3): 0 (0) n (%)
- Number of patients with: Any peposertib related TEAE leading to death ([3]; 150/BID n = 3): 0 (0) n (%)
- Number of patients with: Any TEAE leading to death ([3]; 200/BID n = 3): 0 (0) n (%)
- Number of patients with: Any peposertib related TEAE leading to death ([3]; 200/BID n = 3): 0 (0) n (%)
- Number of patients with: Any TEAE leading to death ([3]; 200/QD n = 3): 0 (0) n (%)
- Number of patients with: Any peposertib related TEAE leading to death ([3]; 200/QD n = 3): 0 (0) n (%)
- Number of patients with: Any TEAE leading to death ([3]; 300/BID n = 9): 0 (0) n (%)
- Number of patients with: Any peposertib related TEAE leading to death ([3]; 300/BID n = 9): 0 (0) n (%)
- Number of patients with: Any TEAE leading to death ([3]; 400/BID (RP2D) n = 6): 0 (0) n (%)
- Number of patients with: Any peposertib related TEAE leading to death ([3]; 400/BID (RP2D) n = 6): 0 (0) n (%)
- Number of patients with: Any TEAE leading to death ([3]; 400/BID n = 4): 1 (25) n (%)
- Number of patients with: Any peposertib related TEAE leading to death ([3]; 400/BID n = 4): 0 (0) n (%)
- Number of patients with: Any TEAE leading to death ([3]; Total N = 31): 1 (3) n (%)
- Number of patients with: Any peposertib related TEAE leading to death ([3]; Total N = 31): 0 (0) n (%)
- Grade 3 peposertib-related maculo-papular rash, patients ([3]; human, in vivo): 4 n
- Grade 3 peposertib-related nausea, patients ([3]; human, in vivo): 2 n
- Number of patients with: Any peposertib-related Grade ≥4 TEAE ([3]; human, in vivo): 0 (0) n (%)
- TEAE constipation, patients ([3]; human, in vivo): 10 n
- TEAE fatigue, patients ([3]; human, in vivo): 14 n
- TEAE nausea, patients ([3]; human, in vivo): 17 n
- TEAE pyrexia, patients ([3]; human, in vivo): 11 n
- Treatment-related TEAE: Constipation, Grade 3 ([3]; human, in vivo): 0 (0) n (%)
- Treatment-related TEAE: Decreased appetite, Grade 3 ([3]; human, in vivo): 0 (0) n (%)
- Treatment-related TEAE: Diarrhoea, Grade 3 ([3]; human, in vivo): 0 (0) n (%)
- Treatment-related TEAE: Dry mouth, Grade 3 ([3]; human, in vivo): 0 (0) n (%)
- Treatment-related TEAE: Periorbital oedema, Grade 3 ([3]; human, in vivo): 0 (0) n (%)
- Treatment-related TEAE: Vomiting, Grade 3 ([3]; human, in vivo): 0 (0) n (%)
- patients with a serious TEAE ([3]; human, in vivo): 55%
- patients with at least one TEAE ([3]; human, in vivo): 31 patients
- patients with at least one TEAE of Grade ≥3 ([3]; human, in vivo): 68%
- patients with peposertib-related Grade 3 TEAEs ([3]; human, in vivo): 23%
- peposertib-related Grade 4 TEAEs ([3]; human, in vivo): no peposertib-related Grade 4 TEAEs
- deaths considered treatment-related ([3]; three patients died due to disease progression): None
